Earlier results as cited in paper PMC12844998, “Bridging the Knowledge Gap in Harmaline’s Pharmacological Properties: A Focus on Thermodynamics and Kinetics” (Pharmaceutics, 2025).

Settings: source not stated; cited from earlier work

In the case of `CCCCCC` [Hex, n-Hexane], the logP is listed as 3.5.
